Source: publication PMC7674646, “Structural and Functional Analyses of the Transcription Repressor DgoR From Escherichia coli Reveal a Divalent Metal-Containing D-Galactonate Binding Pocket” (Frontiers in Microbiology, 2020)
“And” between values parts separate entries of the source, which are not always exact repeats. Equal entries are not always repeated.

Legend:
[1] = target: EcoDgoR / dgo cis-acting element (Escherichia coli, UniProt P31460); test: EMSA of WT EcoDgoR with dgo cis-acting element; assay type: biochemical; conditions: for effect on stability of EcoDgoR/DNA complex (EMSA): EDTA-treated EcoDgoR, 0.5 mM sugar plus divalent metal cation (Zn2+, Ca2+ or Mg2+); for effect on EcoDgoR/DNA complex (EMSA): EcoDgoR pre-incubated with 5 mM EDTA, sugar alone (0.5 mM), no metal added; for effect on DNA bound by EcoDgoR (EMSA): WT EcoDgoR, 0.5 mM sugar
Chain of EcoDgoR / dgo cis-acting element (P31460 whole entry): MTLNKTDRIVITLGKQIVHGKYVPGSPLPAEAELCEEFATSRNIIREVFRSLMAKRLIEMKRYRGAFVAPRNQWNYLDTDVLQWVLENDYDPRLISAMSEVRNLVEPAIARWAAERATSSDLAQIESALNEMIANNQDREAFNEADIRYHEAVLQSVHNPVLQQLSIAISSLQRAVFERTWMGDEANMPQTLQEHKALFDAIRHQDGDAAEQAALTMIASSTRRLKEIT
Text: (§1) For expression of the recombinant DgoR mutants (i.e., R102A, D146A, H150A, Q173A, R179A, W181A, D184A, T191A, H195A, S221A, R224A, and R224E), the wild-type E. coli dgoR gene on the expression plasmid pET28a was mutated using the site-directed mutagenesis method. The dgo cis-acting element region of E. coli K12 was generated by PCR and subsequently inserted into the HincII site of pUC18. The obtained plasmid was used as the template for preparation of the Cy5-labeled probes using the universal primer pair of Cy5-labeled dgoRcis-acting_F and dgoRcis-acting_R. Cy5-labeled probe (100 ng) was incubated with different amounts of dgoR or its mutants at 25°C for 20 min in a buffer comprising of 25 mM Tris-HCl (pH 8.0), 50 mM KCl, 2.5 mM MgCl2, 5% glycerol, 1 mM dithiothreitol (DTT), and 100 μg/mL sonicated salmon sperm DNA (Sangon) (total volume 20 μl). The resulting DNA-protein complexes were subjected to electrophoresis on native PAGE gels at 100 V, 4°C for 2.5 h in a running buffer containing 25 mM Tris-HCl (pH 7.8) and 250 mM glycine. After electrophoresis, gels were directly scanned for fluorescent DNAs using an ImageQuantTM LAS 4000 system (GE Healthcare). For EMSAs in the presence or absence of D-galactonate or D-glucose, 0.5 mM D-galactonate or D-glucose was applied.

[2] = target: EcoDgoR R102A / dgo cis-acting element (Escherichia coli, UniProt P31460, R102A); test: EMSA of EcoDgoR R102A with dgo cis-acting element; assay type: biochemical; conditions: R102A 8 μM, 0.5 mM D-galactonate
Chain of EcoDgoR R102A / dgo cis-acting element (P31460 whole entry R102A): as the sequence (P31460 whole entry) above, with R102A counted along it
Text: as §1

[3] = target: EcoDgoR Q173A / dgo cis-acting element (Escherichia coli, UniProt P31460, Q173A); test: EMSA of EcoDgoR Q173A with dgo cis-acting element; assay type: biochemical; conditions: Q173A 8 μM, 0.5 mM D-galactonate
Chain of EcoDgoR Q173A / dgo cis-acting element (P31460 whole entry Q173A): as the sequence (P31460 whole entry) above, with Q173A counted along it
Text: as §1

[4] = target: EcoDgoR D184A / dgo cis-acting element (Escherichia coli, UniProt P31460, D184A); test: EMSA of EcoDgoR D184A with dgo cis-acting element; assay type: biochemical; conditions: D184A 8 μM, 0.5 mM D-galactonate
Chain of EcoDgoR D184A / dgo cis-acting element (P31460 whole entry D184A): as the sequence (P31460 whole entry) above, with D184A counted along it
Text: as §1

[5] = target: EcoDgoR D146A / dgo cis-acting element (Escherichia coli, UniProt P31460, D146A); test: EMSA of EcoDgoR D146A with dgo cis-acting element; assay type: biochemical; conditions: supplementation of D-galactonate
Chain of EcoDgoR D146A / dgo cis-acting element (P31460 whole entry D146A): as the sequence (P31460 whole entry) above, with D146A counted along it
Text: as §1

[6] = target: EcoDgoR R224A (Escherichia coli, UniProt P31460, R224A); test: MST binding assay, EcoDgoR R224A mutant
Chain of EcoDgoR R224A (P31460 whole entry R224A): as the sequence (P31460 whole entry) above, with R224A counted along it
Method: (§2) His-tagged DgoR and its derivatives were labeled with the NT-647-NHS dye using the Monolith NT^TM Protein Labeling Kit RED-NHS (NanoTemper Technologies) ([Magnez et al., 2017]; [Welsch et al., 2017]). Serially diluted unlabeled proteins and 100 nM of labeled DgoR or its derivatives were incubated for 15 min at room temperature in binding buffer (1.8 mM KH2PO4, 10 mM Na2HPO4, 137 mM NaCl, 2.7 mM KCl, and 0.05% Tween-20, pH 7.8) in a final volume of 20 μL. Subsequently, samples were loaded into NT.115 premium coated capillaries (NanoTemper Technologies). Binding experiments were performed using a Monolith NT.115 Pico apparatus (NanoTemper Technologies) with the following parameters: LED power 5 %, MST Power high. MST traces were analyzed between 4.00 and 5.00 s after turning on the IR-Laser. Measurements were carried out with D-galactonate. For each experiment, the unlabeled proteins were produced from independent preparations. Results were obtained with the MO Control software version 1.6. MO Affinity Analysis software version 2.3 was used to determine the fraction of the formed complex. Apparent dissociation constants (Kd) were calculated using nonlinear fitting assuming one specific binding site with the GraphPad Prism 7 software with the following formula
(§3) (whereBisMaxthemaximumtheoreticalspecificbinding,hereB=Max1).

[7] = target: WT-EcoDgoR (Escherichia coli, UniProt P31460); test: MST binding assay, D-galactonate to wild-type EcoDgoR
Chain of WT-EcoDgoR (P31460 whole entry): as the sequence (P31460 whole entry) above
Method: as §2, §3

[8] = target: EcoDgoR H195A / dgo cis-acting element (Escherichia coli, UniProt P31460, H195A); test: EMSA of EcoDgoR H195A with dgo cis-acting element; assay type: biochemical; conditions: 0.5 mM D-galactonate
Chain of EcoDgoR H195A / dgo cis-acting element (P31460 whole entry H195A): as the sequence (P31460 whole entry) above, with H195A counted along it
Text: as §1

[9] = target: EcoDgoR W181A / dgo cis-acting element (Escherichia coli, UniProt P31460, W181A); test: EMSA of EcoDgoR W181A with dgo cis-acting element; assay type: biochemical; conditions: presence vs absence of 0.5 mM D-galactonate
Chain of EcoDgoR W181A / dgo cis-acting element (P31460 whole entry W181A): as the sequence (P31460 whole entry) above, with W181A counted along it
Text: as §1

[10] = target: EcoDgoR T191A / dgo cis-acting element (Escherichia coli, UniProt P31460, T191A); test: EMSA of EcoDgoR T191A with dgo cis-acting element; assay type: biochemical; conditions: T191A 8 μM, 0.5 mM D-galactonate
Chain of EcoDgoR T191A / dgo cis-acting element (P31460 whole entry T191A): as the sequence (P31460 whole entry) above, with T191A counted along it
Text: as §1

[11] = target: EcoDgoR H150A / dgo cis-acting element (Escherichia coli, UniProt P31460, H150A); test: EMSA of EcoDgoR H150A with dgo cis-acting element; assay type: biochemical; conditions: 0.5 mM D-galactonate
Chain of EcoDgoR H150A / dgo cis-acting element (P31460 whole entry H150A): as the sequence (P31460 whole entry) above, with H150A counted along it
Text: as §1

[12] = target: EcoDgoR R224E / dgo cis-acting element (Escherichia coli, UniProt P31460, R224E); test: EMSA of EcoDgoR R224E with dgo cis-acting element; assay type: biochemical; conditions: 0.5 mM D-galactonate
Chain of EcoDgoR R224E / dgo cis-acting element (P31460 whole entry R224E): as the sequence (P31460 whole entry) above, with R224E counted along it
Text: as §1

[13] = target: EcoDgoR R102A (Escherichia coli, UniProt P31460, R102A); test: MST binding assay, EcoDgoR R102A mutant
Chain of EcoDgoR R102A (P31460 whole entry R102A): as the sequence (P31460 whole entry) above, with R102A counted along it
Method: as §2, §3

[14] = target: EcoDgoR T191A (Escherichia coli, UniProt P31460, T191A); test: MST binding assay, EcoDgoR T191A mutant
Chain of EcoDgoR T191A (P31460 whole entry T191A): as the sequence (P31460 whole entry) above, with T191A counted along it
Method: as §2, §3

[15] = target: EcoDgoR W181A (Escherichia coli, UniProt P31460, W181A); test: MST binding assay, EcoDgoR W181A mutant
Chain of EcoDgoR W181A (P31460 whole entry W181A): as the sequence (P31460 whole entry) above, with W181A counted along it
Method: as §2, §3

[16] = target: EcoDgoR R179A / dgo cis-acting element (Escherichia coli, UniProt P31460, R179A); test: EMSA of EcoDgoR R179A with dgo cis-acting element; assay type: biochemical; conditions: presence vs absence of 0.5 mM D-galactonate
Chain of EcoDgoR R179A / dgo cis-acting element (P31460 whole entry R179A): as the sequence (P31460 whole entry) above, with R179A counted along it
Text: as §1

[17] = target: EcoDgoR H150A (Escherichia coli, UniProt P31460, H150A); test: MST binding assay, EcoDgoR H150A mutant
Chain of EcoDgoR H150A (P31460 whole entry H150A): as the sequence (P31460 whole entry) above, with H150A counted along it
Method: as §2, §3

[18] = target: EcoDgoR S221A / dgo cis-acting element (Escherichia coli, UniProt P31460, S221A); test: EMSA of EcoDgoR S221A with dgo cis-acting element; assay type: biochemical; conditions: supplementation of D-galactonate
Chain of EcoDgoR S221A / dgo cis-acting element (P31460 whole entry S221A): as the sequence (P31460 whole entry) above, with S221A counted along it
Text: as §1

[19] = target: EcoDgoR R224A / dgo cis-acting element (Escherichia coli, UniProt P31460, R224A); test: EMSA of EcoDgoR R224A with dgo cis-acting element; assay type: biochemical; conditions: 0.5 mM D-galactonate
Chain of EcoDgoR R224A / dgo cis-acting element (P31460 whole entry R224A): as the sequence (P31460 whole entry) above, with R224A counted along it
Text: as §1

SMILES: OC[C@H]1OC(O)[C@H](O)[C@@H](O)[C@@H]1O (stereo partly drawn) [D-glucose]
- effect on stability of EcoDgoR/DNA complex (EMSA) [1]: not affected significantly
- effect on EcoDgoR/DNA complex (EMSA) [1]: didn’t disrupt the formation of stable protein/DNA complexes
- effect on DNA bound by EcoDgoR (EMSA) [1]: did not display such effect

SMILES: O=C(O)[C@H](O)[C@@H](O)[C@@H](O)[C@H](O)CO [D-galactonate]
- effect on DNA binding of mutant (EMSA) [2]: restored their DNA binding ability to some extent
- effect on DNA binding of mutant (EMSA) [3]: restored their DNA binding ability to some extent
- effect on DNA binding of mutant (EMSA) [4]: restored their DNA binding ability to some extent
- effect on stability of EcoDgoR/DNA complex (EMSA) [1]: decreased the stability of EcoDgoR/DNA complex
- effect on EcoDgoR/DNA complex (EMSA) [1]: didn’t disrupt the formation of stable protein/DNA complexes
- effect on DNA bound by EcoDgoR (EMSA) [1]: relieved DNA bound by EcoDgoR in a concentration-dependent manner
- effect on DNA binding of mutant (EMSA) [5]: slightly decreased their ability to bind DNA
- Kd [6]: > 50 mM
- interaction with D-galactonate (MST) ([6]; R224A mutant): did not interact
- Kd ([7]; WT EcoDgoR 100 nM, D-galactonate 305 nM to 10 mM): ~0.22 mM and 0.22 mM
- Kd ([7]; WT EcoDgoR after EDTA incubation): 30 ± 20.3 mM
- effect on DNA binding of mutant (EMSA) [8]: remain inability to bind DNA
- effect on DNA binding of mutant (EMSA) [9]: no significant difference in DNA binding affinity
- effect on DNA binding of mutant (EMSA) [10]: restored their DNA binding ability to some extent
- effect on DNA binding of mutant (EMSA) [11]: remain inability to bind DNA
- effect on DNA binding of mutant (EMSA) [12]: remain inability to bind DNA
- Kd [13]: > 50 mM
- interaction with D-galactonate (MST) ([13]; R102A mutant): did not interact
- Kd [14]: > 50 mM
- interaction with D-galactonate (MST) ([14]; T191A mutant): did not interact
- Kd [15]: > 50 mM
- interaction with D-galactonate (MST) ([15]; W181A mutant): did not interact
- effect on DNA binding of mutant (EMSA) [16]: no significant difference in DNA binding affinity
- Kd [17]: 4.99 ± 1.02 mM
- effect on DNA binding of mutant (EMSA) [18]: slightly decreased their ability to bind DNA
- effect on DNA binding of mutant (EMSA) [19]: remain inability to bind DNA
